One experiment deals with GABAA receptor. Kind of experiment: CNP-recorded membrane potential of HT-22 cells during pharmacological stimulation (GABA, bicuculline). It counts as cell-based, mouse. Particulars: for hyperpolarization from the RMP: 12 mM GABA in bath; for time for cell to return to its RMP: constant HBSS perfusion.
The test system of another experiment is HT-22 cells. In words: CNP-recorded membrane potential of HT-22 cells during ionic (K+) enrichment. In kind it is cell-based, mouse. Particulars: for depolarization: KCl added to bath. The text has this:
Because the cell membrane is highly permeable to potassium ions (K^+), an increase or decrease in extracellular K+ concentration will, respectively, cause a resting cell to depolarize (membrane potential becoming more positive) or hyperpolarize (membrane potential becoming more negative). Utilizing CNPs, variations in membrane potential were monitored over tens of minutes. FIG. 8A is a recording of membrane potential from an HT-22 cell during perfusion intervals with normal HBSS and K+-enriched HBSS (additional 5 mM K^+). […] After approximately 2 min at higher extracellular K^+, the cell was perfused with normal HBSS and the cell slowly returned to its RMP.
Next, a CNP was used to measure changes in membrane potential during repetitive extracellular administration of KCl [FIG. 8B]. After penetrating the cell, as indicated by the arrow in FIG. 8B, the CNP measured a stable RMP under normal HBSS perfusion (Emp=−68 mV). […] Under constant perfusion in normal HBSS, the membrane potential returned to its original value after […]. The results were reproducible with high fidelity.
FIG. 8C is a representation of potential variations as a function of time during the administration of HBSS and the varied K+-enrichment of HBSS (additional 5 and 15 mM K^+). […] As normal HBSS perfusion brought the bath back to its initial K+ concentration, the cell returned to its RMP in ˜90 seconds.
Lastly, CNPs were used to electrically record a cell response to sequential pharmacological stimulation and ionic enrichment. FIG. 10B represents the opposing membrane responses to such stimuli over time. […] Once the GABA was washed away under constant HBSS perfision, the cell returned to its RMP in 60 sec. […] As excess KCl was washed away under constant HBSS perfusion, the cell returned again to its RMP after 60 sec.
Cell Culture and Preparation. The mouse hippocampal cell line HT-22 was kindly provided by Dr. David Schubert (The Salk Institute, San Diego, Calif.). Cells were grown in Dulbecco's Modified Eagle Medium (DMEM, high glucose) supplemented with 10% fetal bovine serum (FBS) and 1% antibiotics. The cells were plated on 12 mm cover slips 48 hrs prior to the electrophysiology measurements. The cells on the cover slips were incubated in HBSS (with calcium and magnesium) at room temperature for 10 min prior to measurements. The cover slips were subsequently placed in an open diamond perfision bath (Warner Instruments Corp., RC-22C) positioned on an upright microscope (Nikon eclipse E600FN, 40× water-immersion lens, Burleigh Gibraltar fixed-stage platform) located atop a vibration-isolation table. Cells were routinely perfised with HBSS at a flow rate of 1.0 mllmin.
Electrophysiology. Membrane potential measurements were recorded with an Axon AxoClamp-2A amplifier equipped with a headstage for high resistance electrodes (Axon HS2-XO.OlMU) and Digidata 1322A digitizer (Axon Instruments/Molecular Devices, Sunnyvale, Calif.). Experimental protocols were controlled and data acquired by a personal computer using the Clampex 8.2 software (Axon Instruments). CNPs were inserted into a standard electrode holder until the metal wire of the holder came in contact with the inner carbon film of the CNP. A slight positive pressure was applied through the holder's perfixion port to keep external solution from filling the hollow CNP by capillarity. A micromanipulator (Narishige MHW-3) was used to manipulate and position the CNP electrodes during the electrophysiology measurements. All the electrical measurements were carried out versus an AgIAgCl reference electrode submerged in HBSS in discontinuous current clamp @CC) mode, at zero current, with no capacitance compensation. The CNP potential was nulled (+I-2 mV) with the amplifier offset potential during immersion in HBSS before all electrical measurements. Recorded electrical measurements were not adjusted to compensate for differences in extracellular and intracellular junction potentials.

SMILES strings stand for the structures.

Protocol for GABAA receptor: Recording Cellular Responses to Pharmacological Stimuli. In addition to monitoring predictable cell membrane potential changes caused by ionic enrichment, CNPs were utilized to electrically record cell responses to pharmacological stimuli. Y-aminobutyric acid (GABA), a principal inhibitory neurotransmitter in the mammalian central nervous system which acts as an agonist for the membrane-bound GABAA receptor, was administered. When GABA binds to the GABAA receptor, the cell hyperpolarizes as a result of Cl− ion influx due to the opening of the ligand-gated Cl− ion channel. However, the hyperpolarization can be blocked by perfusing cells with bicuculline (BIC), a competitive antagonist for the GABAA receptor which binds to the GABAA receptor and prevents it from opening even in the presence of GABA.
FIG. 10A illustrates how an HT-22 cell responded when GABA was added to the cell bath (12 mM GABA in bath, arrow).
Cell Culture and Preparation. […] Cells were grown in Dulbecco's Modified Eagle Medium (DMEM, high glucose) supplemented with 10% fetal bovine serum (FBS) and 1% antibiotics. The cells were plated on 12 mm cover slips 48 hrs prior to the electrophysiology measurements. The cells on the cover slips were incubated in HBSS (with calcium and magnesium) at room temperature for 10 min prior to measurements. The cover slips were subsequently placed in an open diamond perfision bath (Warner Instruments Corp., RC-22C) positioned on an upright microscope (Nikon eclipse E600FN, 40× water-immersion lens, Burleigh Gibraltar fixed-stage platform) located atop a vibration-isolation table. Cells were routinely perfised with HBSS at a flow rate of 1.0 mllmin.
Electrophysiology. Membrane potential measurements were recorded with an Axon AxoClamp-2A amplifier equipped with a headstage for high resistance electrodes (Axon HS2-XO.OlMU) and Digidata 1322A digitizer (Axon Instruments/Molecular Devices, Sunnyvale, Calif.). Experimental protocols were controlled and data acquired by a personal computer using the Clampex 8.2 software (Axon Instruments). CNPs were inserted into a standard electrode holder until the metal wire of the holder came in contact with the inner carbon film of the CNP. A slight positive pressure was applied through the holder's perfixion port to keep external solution from filling the hollow CNP by capillarity. A micromanipulator (Narishige MHW-3) was used to manipulate and position the CNP electrodes during the electrophysiology measurements. […] Recorded electrical measurements were not adjusted to compensate for differences in extracellular and intracellular junction potentials.

On to `NCCCC(=O)O` [GABA, Y-aminobutyric acid], for which the “hyperpolarization from the RMP” value came out at 12 mV with GABAA receptor (RMP -57 mV, FIG. 10B) and 10 mV in the experiment with GABAA receptor (normal HBSS perfusion, RMP -53 mV, FIG. 10A). The “time for cell to return to its RMP” value worked out at 60 s in the experiment with GABAA receptor (after 12 mM GABA washed away, FIG. 10B) and 30 s in the experiment on GABAA receptor (after 12 mM GABA, FIG. 10A).

Turning to `[Cl-].[K+]` [KCl, Potassium chloride], the depolarization in the experiment on HT-22 cells (additional 5 mM K+, RMP -57 mV, FIG. 8C) is listed as 10 mV; in the experiment on HT-22 cells (additional 15 mM K+, RMP -57 mV, FIG. 8C), 30 mV; with HT-22 cells (additional 15 mM K+, after GABA washout, RMP -57 mV, FIG. 10B), 25 mV; in the experiment with HT-22 cells (additional 25 mM K+, RMP -68 mV, FIG. 8B), 40 mV. For the same molecule, the “time for cell to return to its RMP” value in the experiment with HT-22 cells (after additional 5 mM K+, normal HBSS perfusion, FIG. 8C) is roughly 90 s; in the experiment with HT-22 cells (after additional 15 mM K+, FIG. 8C), roughly 90 s; in the experiment on HT-22 cells (after additional 15 mM K+, constant HBSS perfusion, FIG. 10B), 60 s.

For the origin of these results see patent US20110125050A1, “Multiple-Electrode and Metal-Coated Probes” (THE TRUSTEES OF THE UNIVERSITY OF PENNSYLVANIA, priority 2004, published 2011).
